In ChEMBL document CHEMBL5465560, “Selectivity Literature for EUbOPEN Chemogenomic Library” (2024) one finds % of control, % of inhibition and % binding data, which are given here for ten molecules.

Experiment [1] concerns the target Casein kinase I isoform gamma-2 (Homo sapiens) (UniProt P78368). The experiment is described as follows: Selectivity interaction (ProQinase) EUB0000171b CSNK1G2.
The target in experiment [2] is T1, Cytoplasmic tyrosine-protein kinase BMX (Homo sapiens) (UniProt P51813).
T1 sequence (whole entry): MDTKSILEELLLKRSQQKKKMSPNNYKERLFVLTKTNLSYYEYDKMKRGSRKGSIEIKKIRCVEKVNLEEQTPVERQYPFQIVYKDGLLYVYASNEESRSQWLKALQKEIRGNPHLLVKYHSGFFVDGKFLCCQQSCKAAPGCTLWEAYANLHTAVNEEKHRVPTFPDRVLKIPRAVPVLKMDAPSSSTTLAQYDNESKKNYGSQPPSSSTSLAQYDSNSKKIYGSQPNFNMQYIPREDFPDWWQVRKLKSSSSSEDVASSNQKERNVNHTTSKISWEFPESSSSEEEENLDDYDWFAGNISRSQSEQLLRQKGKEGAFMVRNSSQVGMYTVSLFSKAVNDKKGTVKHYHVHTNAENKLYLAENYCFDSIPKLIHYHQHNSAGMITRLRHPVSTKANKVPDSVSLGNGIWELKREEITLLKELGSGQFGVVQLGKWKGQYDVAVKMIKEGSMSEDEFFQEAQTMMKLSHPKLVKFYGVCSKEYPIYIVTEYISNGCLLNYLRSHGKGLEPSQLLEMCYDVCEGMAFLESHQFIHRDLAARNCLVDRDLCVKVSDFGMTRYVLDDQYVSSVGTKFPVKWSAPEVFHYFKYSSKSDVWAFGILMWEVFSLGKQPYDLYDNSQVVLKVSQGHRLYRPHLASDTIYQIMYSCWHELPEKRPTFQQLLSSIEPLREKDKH
The experiment in a line: Selectivity interaction (ProQinase) EUB0000171b BMX.

Experiment [3] deals with Phosphatidylinositol 4-phosphate 5-kinase type-1 gamma (Homo sapiens) (UniProt O60331). The experiment in a line: Selectivity interaction (ProQinase) EUB0000171b PIP5K1C. To be noted: at 1 µM.
Experiment [4] concerns the target Cyclin-dependent kinase 3 (Homo sapiens) (UniProt Q00526). To be noted: at 10 µM.
Experiment [5] has as its target Serine/threonine-protein kinase 32B (Homo sapiens) (UniProt Q9NY57). To be noted: at 10 µM.
Experiment [6] has as its target T2, Dual specificity mitogen-activated protein kinase kinase 6 (Homo sapiens) (UniProt P52564).
T2 sequence (whole entry): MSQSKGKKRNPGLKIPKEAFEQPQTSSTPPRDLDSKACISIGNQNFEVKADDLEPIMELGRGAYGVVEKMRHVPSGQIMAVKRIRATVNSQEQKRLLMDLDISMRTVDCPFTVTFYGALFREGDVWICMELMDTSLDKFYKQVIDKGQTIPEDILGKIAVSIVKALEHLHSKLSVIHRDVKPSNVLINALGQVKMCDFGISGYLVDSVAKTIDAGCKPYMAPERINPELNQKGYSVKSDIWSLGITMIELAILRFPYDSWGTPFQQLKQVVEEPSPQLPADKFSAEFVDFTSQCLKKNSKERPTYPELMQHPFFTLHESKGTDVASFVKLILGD
The experiment in a line: Selectivity interaction (Millipore kinase profiler) EUB0000124b MAP2K6. As to conditions: at 10 µM.

Experiment [7] concerns the target Mitogen-activated protein kinase 1 (Homo sapiens, UniProt P28482). The experiment is described as follows: Selectivity interaction (KinomeScan (DiscoverX)) EUB0000092b MAPK1. To be noted: at 10 µM.
The target in experiment [8] is Calcium/calmodulin-dependent protein kinase type II subunit delta (Homo sapiens) (UniProt Q13557). The experiment in a line: Selectivity interaction (KinomeScan (DiscoverX)) EUB0000045b CAMK2D.
Sequence of Calcium/calmodulin-dependent protein kinase type II subunit delta (Homo sapiens) (Q13557 whole entry): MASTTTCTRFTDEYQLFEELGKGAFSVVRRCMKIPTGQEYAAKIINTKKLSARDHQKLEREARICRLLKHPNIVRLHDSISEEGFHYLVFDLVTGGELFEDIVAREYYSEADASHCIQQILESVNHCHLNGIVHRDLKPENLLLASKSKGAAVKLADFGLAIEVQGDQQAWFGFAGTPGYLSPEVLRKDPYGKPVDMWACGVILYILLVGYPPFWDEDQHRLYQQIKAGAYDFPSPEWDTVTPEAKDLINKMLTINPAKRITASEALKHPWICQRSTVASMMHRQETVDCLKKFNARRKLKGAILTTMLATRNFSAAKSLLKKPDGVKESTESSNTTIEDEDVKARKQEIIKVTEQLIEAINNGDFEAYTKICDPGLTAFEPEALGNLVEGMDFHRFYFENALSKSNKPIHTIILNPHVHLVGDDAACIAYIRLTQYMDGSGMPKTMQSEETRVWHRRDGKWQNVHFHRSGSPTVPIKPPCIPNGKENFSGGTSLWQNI
Experiment [9] addresses Cyclin-dependent kinase 13 (Homo sapiens, UniProt Q14004). The experiment is described as follows: Selectivity interaction (KinomeScan (DiscoverX)) EUB0000666a CDK13. To be noted: at 10 µM.
Experiment [10] deals with Serine/threonine-protein kinase Nek6 (Homo sapiens) (UniProt Q9HC98). The experiment is described as follows: Selectivity interaction (SelectScreen profiling (Invitrogen)) EUB0000607a NEK6. As to conditions: at 2 µM.
Experiment [11] has as its target TGF-beta receptor type-2 (Homo sapiens) (UniProt P37173). The experiment is described as follows: Selectivity interaction (KinomeScan (DiscoverX)) EUB0000607a TGFBR2. As to conditions: at 10 µM.
Experiment [12] addresses Tyrosine-protein kinase receptor UFO (Homo sapiens) (UniProt P30530). The experiment in a line: Selectivity interaction (SelectScreen profiling (Invitrogen)) EUB0000607a AXL. To be noted: at 2 µM.
In experiment [13] the target is Dual specificity tyrosine-phosphorylation-regulated kinase 1B (Homo sapiens, UniProt Q9Y463). The experiment in a line: Selectivity interaction (KinomeScan (DiscoverX)) EUB0000229b DYRK1B. To be noted: at 10 µM.
For experiment [14], the target named is Bone morphogenetic protein receptor type-1A (Homo sapiens, UniProt P36894). The experiment is described as follows: Selectivity interaction (KinomeScan (DiscoverX)) EUB0000595a BMPR1A. As to conditions: at 10 µM.
Sequence of Bone morphogenetic protein receptor type-1A (P36894 whole entry): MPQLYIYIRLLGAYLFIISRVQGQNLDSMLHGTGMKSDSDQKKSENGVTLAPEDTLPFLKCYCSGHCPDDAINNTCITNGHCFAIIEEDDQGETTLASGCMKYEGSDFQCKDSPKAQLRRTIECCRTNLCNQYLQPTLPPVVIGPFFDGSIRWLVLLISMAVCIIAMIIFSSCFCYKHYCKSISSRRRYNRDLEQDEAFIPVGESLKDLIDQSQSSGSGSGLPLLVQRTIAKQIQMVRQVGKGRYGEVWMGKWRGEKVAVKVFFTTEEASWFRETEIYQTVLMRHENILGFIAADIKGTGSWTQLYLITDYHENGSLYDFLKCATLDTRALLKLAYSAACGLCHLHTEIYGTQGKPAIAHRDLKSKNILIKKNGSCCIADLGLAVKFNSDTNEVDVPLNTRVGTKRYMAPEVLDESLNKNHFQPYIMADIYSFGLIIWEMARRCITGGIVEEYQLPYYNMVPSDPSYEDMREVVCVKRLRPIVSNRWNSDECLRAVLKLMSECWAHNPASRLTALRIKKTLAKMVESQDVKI
In experiment [15] the target is Activated CDC42 kinase 1 (Homo sapiens, UniProt Q07912). The experiment is described as follows: Selectivity interaction (KinomeScan (DiscoverX)) EUB0000595a TNK2. As to conditions: at 10 µM.
Sequence of Activated CDC42 kinase 1 (Q07912 whole entry, looked up): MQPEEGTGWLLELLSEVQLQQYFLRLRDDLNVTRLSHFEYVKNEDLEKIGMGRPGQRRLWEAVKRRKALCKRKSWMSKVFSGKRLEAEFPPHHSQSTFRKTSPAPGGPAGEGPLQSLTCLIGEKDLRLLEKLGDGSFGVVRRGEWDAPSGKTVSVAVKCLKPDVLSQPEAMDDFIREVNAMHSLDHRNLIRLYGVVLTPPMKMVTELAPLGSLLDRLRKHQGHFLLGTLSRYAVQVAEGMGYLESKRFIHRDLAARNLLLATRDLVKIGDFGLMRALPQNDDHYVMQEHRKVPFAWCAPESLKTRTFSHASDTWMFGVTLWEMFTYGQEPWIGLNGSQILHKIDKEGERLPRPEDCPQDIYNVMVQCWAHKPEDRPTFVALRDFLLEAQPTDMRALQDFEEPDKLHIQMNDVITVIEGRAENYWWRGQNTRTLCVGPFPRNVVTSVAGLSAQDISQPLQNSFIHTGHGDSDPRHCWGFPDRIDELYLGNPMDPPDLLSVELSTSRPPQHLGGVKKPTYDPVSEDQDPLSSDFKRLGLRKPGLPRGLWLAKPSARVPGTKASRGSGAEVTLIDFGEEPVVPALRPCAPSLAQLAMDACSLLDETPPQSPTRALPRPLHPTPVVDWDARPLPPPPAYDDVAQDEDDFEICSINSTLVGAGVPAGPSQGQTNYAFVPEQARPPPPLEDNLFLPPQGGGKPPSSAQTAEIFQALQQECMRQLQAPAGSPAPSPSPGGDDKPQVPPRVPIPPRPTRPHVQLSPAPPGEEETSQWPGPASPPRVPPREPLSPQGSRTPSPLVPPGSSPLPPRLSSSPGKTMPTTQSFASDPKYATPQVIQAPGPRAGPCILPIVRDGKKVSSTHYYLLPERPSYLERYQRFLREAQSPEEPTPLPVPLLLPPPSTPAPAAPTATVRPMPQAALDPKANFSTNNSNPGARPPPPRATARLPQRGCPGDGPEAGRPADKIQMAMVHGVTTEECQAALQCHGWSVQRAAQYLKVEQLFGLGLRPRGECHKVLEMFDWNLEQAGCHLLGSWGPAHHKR
For experiment [16], the target named is T3, Serine/threonine-protein kinase DCLK2 (Homo sapiens) (UniProt Q8N568).
T3 sequence (whole entry): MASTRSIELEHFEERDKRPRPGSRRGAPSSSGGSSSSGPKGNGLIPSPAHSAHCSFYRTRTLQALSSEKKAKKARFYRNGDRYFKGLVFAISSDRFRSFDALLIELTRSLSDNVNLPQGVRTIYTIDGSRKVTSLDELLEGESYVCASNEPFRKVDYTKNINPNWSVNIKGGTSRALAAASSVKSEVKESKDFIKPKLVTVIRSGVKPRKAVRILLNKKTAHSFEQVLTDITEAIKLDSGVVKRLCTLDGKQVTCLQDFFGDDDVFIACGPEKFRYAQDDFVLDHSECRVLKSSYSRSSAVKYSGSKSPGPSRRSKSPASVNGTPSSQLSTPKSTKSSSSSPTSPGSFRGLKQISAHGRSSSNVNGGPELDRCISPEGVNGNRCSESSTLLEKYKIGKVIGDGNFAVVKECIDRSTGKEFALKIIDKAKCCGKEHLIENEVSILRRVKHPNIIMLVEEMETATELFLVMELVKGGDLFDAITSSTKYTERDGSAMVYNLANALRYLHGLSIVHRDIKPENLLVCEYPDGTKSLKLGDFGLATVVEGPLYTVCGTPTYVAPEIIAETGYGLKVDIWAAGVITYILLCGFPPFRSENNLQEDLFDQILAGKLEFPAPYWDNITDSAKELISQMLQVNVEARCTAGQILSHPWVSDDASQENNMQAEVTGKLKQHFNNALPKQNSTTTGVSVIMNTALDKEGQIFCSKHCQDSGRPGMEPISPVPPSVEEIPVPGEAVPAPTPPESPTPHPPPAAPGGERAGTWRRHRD
The experiment is described as follows: Selectivity interaction (KinomeScan (DiscoverX)) EUB0000618a DCLK2. As to conditions: at 10 µM.

Sequence of Casein kinase I isoform gamma-2 (Homo sapiens) (P78368 whole entry, looked up, canonical isoform): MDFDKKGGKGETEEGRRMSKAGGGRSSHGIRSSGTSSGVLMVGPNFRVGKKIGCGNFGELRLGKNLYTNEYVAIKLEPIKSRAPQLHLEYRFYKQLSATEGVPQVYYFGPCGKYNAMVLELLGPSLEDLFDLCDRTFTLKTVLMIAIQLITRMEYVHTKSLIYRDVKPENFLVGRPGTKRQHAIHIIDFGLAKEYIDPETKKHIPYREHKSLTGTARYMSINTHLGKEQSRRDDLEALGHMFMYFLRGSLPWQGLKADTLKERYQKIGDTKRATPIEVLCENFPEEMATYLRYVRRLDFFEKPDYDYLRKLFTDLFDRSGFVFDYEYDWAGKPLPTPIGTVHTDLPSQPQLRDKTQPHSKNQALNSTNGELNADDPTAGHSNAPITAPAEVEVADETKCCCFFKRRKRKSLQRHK
Sequence of Serine/threonine-protein kinase 32B (Homo sapiens) (Q9NY57 whole entry): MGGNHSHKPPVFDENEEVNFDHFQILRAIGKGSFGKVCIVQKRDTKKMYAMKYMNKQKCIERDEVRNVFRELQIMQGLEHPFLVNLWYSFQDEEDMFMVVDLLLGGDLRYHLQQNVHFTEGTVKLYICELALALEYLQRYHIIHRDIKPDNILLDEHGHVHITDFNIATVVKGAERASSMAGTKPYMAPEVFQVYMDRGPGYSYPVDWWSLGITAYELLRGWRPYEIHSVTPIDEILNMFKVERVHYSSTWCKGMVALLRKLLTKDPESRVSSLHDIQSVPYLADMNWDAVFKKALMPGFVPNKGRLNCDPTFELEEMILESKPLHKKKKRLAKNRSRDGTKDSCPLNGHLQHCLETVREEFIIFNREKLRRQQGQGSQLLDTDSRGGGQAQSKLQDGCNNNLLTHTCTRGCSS
Sequence of Cyclin-dependent kinase 13 (Q14004 whole entry, looked up): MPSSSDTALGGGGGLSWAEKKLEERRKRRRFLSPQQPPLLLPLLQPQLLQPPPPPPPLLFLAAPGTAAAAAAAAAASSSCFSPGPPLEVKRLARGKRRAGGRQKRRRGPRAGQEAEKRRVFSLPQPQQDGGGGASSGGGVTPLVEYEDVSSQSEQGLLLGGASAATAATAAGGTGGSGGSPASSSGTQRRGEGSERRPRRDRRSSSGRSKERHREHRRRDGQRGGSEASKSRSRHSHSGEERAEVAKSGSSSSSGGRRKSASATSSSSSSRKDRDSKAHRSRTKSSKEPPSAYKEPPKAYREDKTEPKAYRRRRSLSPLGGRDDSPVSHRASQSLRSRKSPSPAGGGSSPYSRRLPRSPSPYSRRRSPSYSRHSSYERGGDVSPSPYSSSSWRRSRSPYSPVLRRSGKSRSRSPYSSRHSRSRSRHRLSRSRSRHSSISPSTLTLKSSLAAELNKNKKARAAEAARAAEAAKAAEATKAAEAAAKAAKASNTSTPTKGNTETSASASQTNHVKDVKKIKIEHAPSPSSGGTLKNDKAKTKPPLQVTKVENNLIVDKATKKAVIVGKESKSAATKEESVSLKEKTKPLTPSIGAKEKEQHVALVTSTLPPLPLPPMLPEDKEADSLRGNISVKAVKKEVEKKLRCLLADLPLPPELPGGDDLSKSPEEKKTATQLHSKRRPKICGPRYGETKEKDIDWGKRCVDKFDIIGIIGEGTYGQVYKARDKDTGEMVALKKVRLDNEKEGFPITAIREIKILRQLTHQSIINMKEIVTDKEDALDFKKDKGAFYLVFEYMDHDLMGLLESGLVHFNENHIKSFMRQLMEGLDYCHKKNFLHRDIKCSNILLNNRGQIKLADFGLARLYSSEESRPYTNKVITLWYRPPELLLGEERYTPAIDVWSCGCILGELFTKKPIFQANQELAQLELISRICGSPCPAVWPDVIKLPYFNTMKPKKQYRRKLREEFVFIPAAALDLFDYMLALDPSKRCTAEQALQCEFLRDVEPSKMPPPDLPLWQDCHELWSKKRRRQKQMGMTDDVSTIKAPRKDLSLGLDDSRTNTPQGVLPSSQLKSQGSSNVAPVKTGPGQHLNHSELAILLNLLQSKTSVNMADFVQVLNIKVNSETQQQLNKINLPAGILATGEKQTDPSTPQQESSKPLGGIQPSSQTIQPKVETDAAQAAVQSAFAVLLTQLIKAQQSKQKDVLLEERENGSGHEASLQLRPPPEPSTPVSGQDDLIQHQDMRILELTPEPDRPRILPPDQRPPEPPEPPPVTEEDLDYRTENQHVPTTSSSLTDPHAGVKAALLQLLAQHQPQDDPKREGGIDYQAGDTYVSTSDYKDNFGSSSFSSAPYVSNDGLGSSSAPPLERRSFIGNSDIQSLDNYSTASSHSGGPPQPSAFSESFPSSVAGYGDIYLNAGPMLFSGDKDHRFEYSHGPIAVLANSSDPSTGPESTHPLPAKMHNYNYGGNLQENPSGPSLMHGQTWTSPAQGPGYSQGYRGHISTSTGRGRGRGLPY
Sequence of TGF-beta receptor type-2 (Homo sapiens) (P37173 whole entry): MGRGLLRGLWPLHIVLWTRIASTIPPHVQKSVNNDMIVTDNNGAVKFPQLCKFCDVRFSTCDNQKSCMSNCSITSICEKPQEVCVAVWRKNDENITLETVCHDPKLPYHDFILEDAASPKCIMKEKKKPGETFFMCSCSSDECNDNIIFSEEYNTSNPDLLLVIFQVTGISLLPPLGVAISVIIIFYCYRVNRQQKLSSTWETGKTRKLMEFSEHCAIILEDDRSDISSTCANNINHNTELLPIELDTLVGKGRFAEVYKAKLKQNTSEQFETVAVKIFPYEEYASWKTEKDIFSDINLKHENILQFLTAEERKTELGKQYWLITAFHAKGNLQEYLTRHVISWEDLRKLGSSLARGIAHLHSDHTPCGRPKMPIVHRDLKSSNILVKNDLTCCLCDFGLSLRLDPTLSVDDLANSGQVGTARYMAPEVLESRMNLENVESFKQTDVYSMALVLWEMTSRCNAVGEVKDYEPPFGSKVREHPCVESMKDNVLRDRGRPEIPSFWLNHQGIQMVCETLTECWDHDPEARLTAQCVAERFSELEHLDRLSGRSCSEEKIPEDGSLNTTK

For `C=CC(=O)Nc1cccc(C(=O)Nc2ccc(Nc3cc(-c4[nH]c(SC)nc4C)ccn3)cc2)c1`, the % of control in experiment [1] (at 1 µM) came out at 22%; in [1] (at 5 µM) it was 5%; in experiment [2] (at 1 µM) it was 106%; in experiment [2] (at 5 µM) it was 85%; in experiment [3], 107%.
`CCN(CC)CCCCNc1ncc2cc(-c3cc(OC)cc(OC)c3)c(NC(=O)NC(C)(C)C)nc2n1`: the % of control in [4] and in [5] was 100% throughout.
`CC(=O)Nc1cccc(-n2c(=O)n(C3CC3)c(=O)c3c(Nc4ccc(I)cc4F)n(C)c(=O)c(C)c32)c1`: in experiment [6], the % of control worked out at 70%.
`CCC(=O)N1CCN(c2ccc(-n3c(=O)ccc4cnc5ccc(-c6cnc7ccccc7c6)cc5c43)cc2C(F)(F)F)CC1`: the % of control in experiment [7] worked out at 100%.
Consider `C=CC(=O)Nc1cc(-n2c(=O)ccc3cnc4ccc(-c5ccc(NS(C)(=O)=O)cc5)cc4c32)ccc1C`, for which the % of control in [8] (at 1 µM) amounted to 100%; in experiment [8] (at 10 µM), 92%.
`O=C(NOC[C@H](O)CO)c1ccc(F)c(F)c1Nc1ccc(I)cc1F` registered a % of control in experiment [9] of 84%.
`CNC(=O)Nc1ccc(-c2nc(N3CC4CCC(C3)O4)c3cnn(C4CCC5(CC4)OCCO5)c3n2)cc1`: the % of inhibition in experiment [10] turned out to be 12%; in experiment [12], 2%. For the same molecule, the % of control in experiment [11] was 100%.
In experiment [13], `COc1cc(N(C)c2ccnc3ccc(C(F)(F)F)cc23)cc(OC)c1OC` showed a % binding of 77%.
`COCC(=O)NC/C=C/c1ccc2ncnc(Nc3ccc(Oc4ccc(C)nc4)c(C)c3)c2c1` [CP-724714]: the results for the % of control in experiment [14] and in experiment [15] were 100% and 78%, respectively.
`O[C@H]1CC[C@H](Nc2ncc3nc(Nc4c(F)cc(F)cc4F)n([C@H]4CCOC4)c3n2)CC1` registered a % of control in [16] of 100%.
